Test results taken from patent US20050265923A1, “Embolus therapy using insoluble microparticles or vesicles containing contrast agents” (priority 1997, published 2005).

Row | melting point | Structure (SMILES)
1 | 280 to 290 °C (dec.) | CCOC(=O)c1c(I)c(NC(C)=O)c(I)c(NC(C)=O)c1I [NC 8883, Ethyl 3,5-diacetamido-2,4,6-triiodobenzoate]
2 | 269.5 to 270.5 °C (dec.) | CCOC(=O)COC(=O)c1c(I)c(NC(C)=O)c(I)c(NC(C)=O)c1I [NC 12901, Ethyl (3,5-diacetamido-2,4,6-triiodobenzoyloxy)acetate]
